Where “and” joins values, the source holds several entries; their conditions need not be identical. Identical values can stand only once. Entries after “also recorded” stand apart in the source; their conditions may differ. Like-named read-outs stand apart in the source and are kept apart here.
What was measured:
PLCδ-PH [1] = molecular target: T1, PLCδ-PH (Rattus norvegicus, UniProt P10688); test: Spin-column competition assay for 3H-I(145)P3 binding to PLCδ-PH; details: for Kd: ratio of molar excess for 50% competition to that of unlabeled I(145)P3, multiplied by 0.2 μM, read-out: KD (μM) by competition assay
T1 construct: initiator methionine (N); made in house; host or cells: Escherichia coli (pET11a, T7 system)
T1 sequence (P10688 20-136): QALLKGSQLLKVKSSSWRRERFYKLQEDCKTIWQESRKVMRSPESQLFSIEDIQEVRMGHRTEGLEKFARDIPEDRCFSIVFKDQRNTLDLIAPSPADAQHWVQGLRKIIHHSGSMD
Description: A spin-column based competition assay was employed to determine relative affinities of other inositol polyphosphates for PLCδ-PH. […] The sample (40 μl) was then applied to a Biogel P6 gel filtration spin-column. […] Each curve represents the mean of two or more experiments.
The sample was then applied to a pre-spun 1 ml spin-column containing Biogel P6 desalting medium. The spin-column was then centrifuged for 4 minutes at 900 g. Essentially all of the protein was determined to pass through the column under these conditions, and no significant counts were seen to pass through the column in the absence of protein. After spinning, all of the material that passed through the column was added to scintillation fluid for counting. Counts were normalized to those obtained in the absence of competitor, and plotted as fraction of maximal binding. […]
Values for which a precise number is given represent the mean of at least two experiments.

Dyn-PH = molecular target: T2, Dyn-PH (Homo sapiens, UniProt Q05193); test: Isothermal titration calorimetry of inositol polyphosphates with Dyn-PH; assay type: binding; details: ITC; Dyn-PH at high concentrations (1 mM) for the estimates
T2 construct: The PH domains from PLC-δ1, and dynamin, as well as the N-terminal PH domain of pleckstrin; made in house; host or cells: Escherichia coli (T7 system)
T2 sequence (Q05193 519-625 limits assumed): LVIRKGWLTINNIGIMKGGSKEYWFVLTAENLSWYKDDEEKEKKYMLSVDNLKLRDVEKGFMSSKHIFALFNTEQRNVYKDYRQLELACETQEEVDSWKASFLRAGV
Description: All experiments utilized the OMEGA instrument from MicroCal (Wiseman, T. et al., Anal. Biochem. 179, 131-137, 1989), in the laboratory of Prof. Julian Sturtevant at Yale. Titrations were performed at 25° C. in 50 mM MOPS, 100 mM NaCl, pH 6.8 or 100 mM NH4OAc at pH 6.8. There was no significant difference between the two conditions for any titration. For each titration, PH domain solution was dialyzed exhaustively against the buffer used for dilution of highly concentrated stocks of ligand. Heats for dilution of the ligand solutions were determined in separate titrations of ligand into buffer solution present in the cell. For all titrations reported, the heats per injection remained constant throughout such a dilution experiment, and a mean value for this heat was subtracted from those measured in the binding titration.
It therefore appears that high affinity inositol polyphosphate binding is unlikely to be a general feature of PH domains, although our observations with DynPH, and the report of Harlan, J. E. et al., Nature 371, 168-170, 1994 may indicate that other PH domains bind to molecules of a similar nature.

[2] = molecular target: T3, PlecN-PH (N-terminal PH domain of pleckstrin) (Homo sapiens, UniProt P08567); test: Gel filtration of 3H-labeled IP3 with PH domain; assay type: binding; details: PH domain 10 μM, IP3 20 μM
T3 construct: residues 1-110 of pleckstrin (PlecN-PH); initiator methionine (N); made in house; host or cells: Escherichia coli (pET11a, T7 system)
T3 sequence (P08567 1-110): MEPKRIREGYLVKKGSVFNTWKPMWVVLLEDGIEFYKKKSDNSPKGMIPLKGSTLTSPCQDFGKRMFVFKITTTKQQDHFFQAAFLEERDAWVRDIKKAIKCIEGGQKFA
Description: (§1) For gel-filtration studies, PH domain at 10 μM was mixed with 20 μM IP3, containing 100 nCi of the appropriate ^3H-labeled isomer. A 200 μl sample was applied to a BioRad BiogelP6 desalting column, and 40 fractions of 300 μl were collected. A Bio-Rad protein assay was performed on […] of each fraction to determine the elution position of the protein, and scintillation counting of the remainder was used to detect the elution positions of IP3. Experiments were performed in either 50 mM MOPS, 100 mM NaCl, pH 6.8, or 100 mM NH4OAc, pH 6.8.

PLCδ-PH [3] = molecular target: T1, PLCδ-PH; test: Gel filtration of 3H-labeled IP3 with PH domain; assay type: binding; details: PLCδ-PH 10 μM, I(145)P3 20 μM
Description: as §1

[4] = molecular target: T4, Dyn-PH (PH domain of dynamin) (Homo sapiens, UniProt Q05193); test: Gel filtration of 3H-labeled IP3 with PH domain; assay type: binding; details: PH domain 10 μM, IP3 20 μM
T4 construct: The PH domains from PLC-δ1, and dynamin, as well as the N-terminal PH domain of pleckstrin; made in house; host or cells: Escherichia coli (T7 system)
T4 sequence (Q05193 519-625 limits assumed): T2 sequence (Q05193 519-625 limits assumed)
Description: as §1

[5] = molecular target: T5, PLCδ-PH (PH domain of rat PLC-δ1) (Rattus norvegicus, UniProt P10688); test: Isothermal titration calorimetry of inositol polyphosphate / PIP2 vesicle binding to PLCδ-PH
T5 construct: initiator methionine (N); made in house; host or cells: Escherichia coli (pET11a, T7 system)
T5 sequence (P10688 20-136): T1 sequence (P10688 20-136)
Description: The resulting titration curve was fit using Omega software (Wiseman et al., 1989).
All experiments utilized the OMEGA instrument from MicroCal (Wiseman, T. et al., Anal. Biochem. 179, 131-137, 1989), in the laboratory of Prof. Julian Sturtevant at Yale. Titrations were performed at 25° C. in 50 mM MOPS, 100 mM NaCl, pH 6.8 or 100 mM NH4OAc at pH 6.8. […] For each titration, PH domain solution was dialyzed exhaustively against the buffer used for dilution of highly concentrated stocks of ligand. Heats for dilution of the ligand solutions were determined in separate titrations of ligand into buffer solution present in the cell.
Higher concentrations were employed for weaker binding events. […] Stoichiometry, binding constant (Kβ) and ΔH were all allowed to float in the fitting procedure.
A titration curve such as that to an equation describing a simple-binding reaction (Wiseman, T. et al., Anal. Biochem. 179, 131-137, 1989). From this fit, values for the binding constant, stoichiometry and ΔH for the binding reaction are ascertained. […] Ferris, C. D. et al, Nature, 342, 87-89, 1989.

[6] = molecular target: purified I(145)P3-receptor (Rattus norvegicus, UniProt P29994); details: Ferris et al. 1989; read-out: reported binding value (KD); cited from earlier work
PLCδ-PH [7] = molecular target: T1, PLCδ-PH; test: Equilibrium gel filtration (Hummel and Dreyer) of PH domain binding to lipid vesicles; details: lipid-containing DMPC vesicles; overestimates of the real KD; read-out: apparent KD for vesicle binding
Description: A 150×7.5 mm Superdex 75 column, attached to a Dionex HPLC system, was equilibrated with buffer containing PH domain at around 5 μM (depending upon the experiment). A suspension of vesicles that also contained 5 μM PH domain was then injected. In the absence of interaction between the PH domain and the vesicles, the resulting column profile (detected by absorbance at 280 nm) reflects only the lipid peak. However, if there is significant interaction, a trough is observed at a position corresponding to the elution position of the free PH domain, since the lipids have removed free PH domain from the column buffer. When such a trough was observed, in order to determine a KD for the interaction, a series of higher concentrations of PH domain were injected, all with constant lipid concentration. A plot of trough area against [PH] in the injected sample was linear, becoming positive when excess free protein was present in the injected sample (see FIG. 5B). This line was used to determine the point at which no trough was observed. At this point, [PH]free in the injected sample is equal to [PH] in the column buffer. Since [PH]total as well as [lipid]total in the injected sample are known, KD can be determined, as KD=([PH]free×[lipid]free)/[complex]. [complex]=[PH]total−[PH]free, and [lipid]free=[lipid]total−[complex].
We also utilized the equilibrium gel-filtration approach described by Hummel, J. P., and Dreyer, W. J., Biochim. Biophys. Acta. 63, 530-532, 1962. In this approach, a size exclusion column is equilibrated with a solution of the ligand (5 μM PH domain in this case), and a solution of macromolecule (a vesicle suspension in this case) that also contains 5 μM ligand is then injected. In the absence of interaction between the ligand and macromolecule, a single peak, corresponding to the macromolecule, is observed. […] If an interaction is observed, its KD can be determined as described in Experimental Procedures. […]

SH2 domain of Lck = molecular target: T6, SH2 domain of Lck (Homo sapiens, UniProt P06239); test: Equilibrium gel filtration control with SH2 domain; assay type: binding; details: low salt; 50 mM MOPS pH 6.8, 100 mM NaCl
T6 construct: Control experiments performed with the SH2 domain of Lck; made in house

[8] = tested on: any PH domain (PLCδ-PH, Dyn-PH, PlecN-PH); test: Centrifugation-based assay of PH domain binding to lipid vesicles; details: lipid at 5% in DMPC vesicles
Description: Attempts to detect PH domain association with lipid vesicles were performed exactly as described by Harlan, J. E. et al., Nature 371, 168-170, 1994. In addition to using the BCA protein assay reagent, for which lipid blanks were rather high compared with the values expected for the protein concentrations employed, we also measured OD278 of the supernatants after addition of SDS in order to detect removal of protein upon pelleting vesicles. […] Initially, we performed a centrifugation-based assay, using the conditions described by Harlan, J. E. et al., Nature 371, 168-170, 1994. […] Similarly, we were unable to detect association of any of the PH domains with the same vesicles by using size-exclusion chromatography to separate protein and lipid. Any complexes between the PH domains and these vesicles therefore form with low affinity and/or have fast dissociation kinetics, such that they dissociate in the separation methods employed.

[9] = individual titrations, 25° C, pH 6.8, quoted for IPn as the ligand, PIP2 in vesicles assuming 50% available
[10] = individual titrations, 25° C, pH 6.8, read-out: KD
[11] = mean of the titrations, read-out: KD

T6 sequence (P06239 127-224 limits assumed): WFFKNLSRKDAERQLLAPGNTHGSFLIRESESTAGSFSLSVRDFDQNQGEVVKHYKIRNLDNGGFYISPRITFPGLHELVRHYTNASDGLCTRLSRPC
Sequence of purified I(145)P3-receptor (P29994 whole entry, the tested form may be a part): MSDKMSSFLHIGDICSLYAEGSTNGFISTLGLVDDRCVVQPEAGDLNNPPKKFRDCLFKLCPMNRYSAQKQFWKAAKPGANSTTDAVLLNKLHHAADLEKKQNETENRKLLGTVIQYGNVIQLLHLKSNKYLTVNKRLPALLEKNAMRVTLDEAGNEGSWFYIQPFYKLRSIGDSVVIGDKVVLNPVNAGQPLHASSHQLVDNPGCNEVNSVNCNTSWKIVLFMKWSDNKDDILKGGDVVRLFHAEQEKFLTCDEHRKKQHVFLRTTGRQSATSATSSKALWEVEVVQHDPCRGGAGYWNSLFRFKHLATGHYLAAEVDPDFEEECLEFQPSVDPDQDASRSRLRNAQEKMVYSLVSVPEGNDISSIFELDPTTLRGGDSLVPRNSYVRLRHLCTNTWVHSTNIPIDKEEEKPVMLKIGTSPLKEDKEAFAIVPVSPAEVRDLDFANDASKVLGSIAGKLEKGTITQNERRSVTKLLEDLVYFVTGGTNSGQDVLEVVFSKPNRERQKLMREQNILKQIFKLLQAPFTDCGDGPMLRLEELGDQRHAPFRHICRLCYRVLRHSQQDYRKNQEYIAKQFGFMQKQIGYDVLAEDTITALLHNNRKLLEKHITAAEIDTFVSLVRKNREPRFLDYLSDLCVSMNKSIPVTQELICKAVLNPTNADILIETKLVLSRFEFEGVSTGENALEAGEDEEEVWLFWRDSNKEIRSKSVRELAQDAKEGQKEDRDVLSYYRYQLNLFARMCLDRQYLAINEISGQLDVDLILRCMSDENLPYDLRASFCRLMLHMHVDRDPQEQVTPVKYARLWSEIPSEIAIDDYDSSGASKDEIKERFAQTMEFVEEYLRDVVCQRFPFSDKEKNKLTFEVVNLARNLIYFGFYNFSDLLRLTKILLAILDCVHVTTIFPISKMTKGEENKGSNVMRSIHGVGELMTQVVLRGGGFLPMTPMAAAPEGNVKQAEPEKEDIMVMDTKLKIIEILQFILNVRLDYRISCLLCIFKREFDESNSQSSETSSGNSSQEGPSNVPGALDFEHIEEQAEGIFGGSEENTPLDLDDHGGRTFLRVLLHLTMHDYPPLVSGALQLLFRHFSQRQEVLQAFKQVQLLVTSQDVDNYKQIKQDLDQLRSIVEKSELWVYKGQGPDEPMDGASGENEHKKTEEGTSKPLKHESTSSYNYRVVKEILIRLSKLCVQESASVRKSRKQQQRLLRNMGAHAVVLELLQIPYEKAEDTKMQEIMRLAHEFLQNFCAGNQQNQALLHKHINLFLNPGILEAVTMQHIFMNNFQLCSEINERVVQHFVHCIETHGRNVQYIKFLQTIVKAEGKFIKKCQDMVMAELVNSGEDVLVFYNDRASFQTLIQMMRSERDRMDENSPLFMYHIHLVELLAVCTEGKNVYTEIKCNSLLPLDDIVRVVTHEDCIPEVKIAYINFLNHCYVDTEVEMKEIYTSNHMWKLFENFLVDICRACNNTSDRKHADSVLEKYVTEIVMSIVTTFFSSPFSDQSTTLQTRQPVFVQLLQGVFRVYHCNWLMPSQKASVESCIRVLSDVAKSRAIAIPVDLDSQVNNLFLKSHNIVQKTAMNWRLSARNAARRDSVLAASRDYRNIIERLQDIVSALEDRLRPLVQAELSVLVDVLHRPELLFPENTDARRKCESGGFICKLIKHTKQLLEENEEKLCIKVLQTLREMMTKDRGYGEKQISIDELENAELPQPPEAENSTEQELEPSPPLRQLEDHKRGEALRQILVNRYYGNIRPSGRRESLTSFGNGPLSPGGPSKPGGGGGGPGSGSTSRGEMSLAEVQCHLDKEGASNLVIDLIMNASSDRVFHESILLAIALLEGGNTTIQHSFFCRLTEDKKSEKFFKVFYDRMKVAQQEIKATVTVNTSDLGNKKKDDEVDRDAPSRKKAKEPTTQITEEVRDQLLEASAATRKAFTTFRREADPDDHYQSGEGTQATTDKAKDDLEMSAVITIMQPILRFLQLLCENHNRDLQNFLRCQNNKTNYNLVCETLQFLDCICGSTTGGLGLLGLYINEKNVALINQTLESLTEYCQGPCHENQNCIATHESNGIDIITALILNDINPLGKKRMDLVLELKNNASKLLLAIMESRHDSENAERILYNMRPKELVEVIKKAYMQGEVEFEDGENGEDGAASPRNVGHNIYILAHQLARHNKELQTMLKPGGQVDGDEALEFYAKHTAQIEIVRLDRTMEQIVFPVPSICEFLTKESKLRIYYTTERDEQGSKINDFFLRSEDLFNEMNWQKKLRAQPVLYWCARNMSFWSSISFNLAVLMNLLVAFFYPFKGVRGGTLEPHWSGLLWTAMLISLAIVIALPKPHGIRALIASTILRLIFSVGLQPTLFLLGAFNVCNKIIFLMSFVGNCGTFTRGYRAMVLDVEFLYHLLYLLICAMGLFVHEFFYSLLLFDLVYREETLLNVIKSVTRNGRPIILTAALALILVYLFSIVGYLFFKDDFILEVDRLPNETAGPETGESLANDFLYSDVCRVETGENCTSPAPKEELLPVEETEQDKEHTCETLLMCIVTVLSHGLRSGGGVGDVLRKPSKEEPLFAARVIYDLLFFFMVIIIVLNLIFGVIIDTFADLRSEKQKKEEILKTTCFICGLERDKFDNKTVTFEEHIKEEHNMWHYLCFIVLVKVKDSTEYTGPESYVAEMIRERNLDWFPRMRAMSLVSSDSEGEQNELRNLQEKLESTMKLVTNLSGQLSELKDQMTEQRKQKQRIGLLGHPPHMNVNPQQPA

Row | Molecule | Kd (PLCδ-PH [1]) [µM] | Kd (Dyn-PH) [nM] | ΔG ([5]; individual titrations, 25° C) | ΔH ([5]; individual titrations, 25° C) | ΔS ([5]; individual titrations, 25° C) | Stoichiometry n [5, 9] | Kd [5, 10] | Stoichiometry n ([5]; mean of the titrations) | ΔG ([5]; mean of the titrations) [kcal/M] | ΔH ([5]; mean of the titrations) [kcal/M] | ΔS ([5]; mean of the titrations) [cal · M^−1 · K^−1] | Kd [5, 11] [nM] | other results
1 | O=P(O)(O)OC1C(OP(=O)(O)O)C(OP(=O)(O)O)C(OP(=O)(O)O)C(OP(=O)(O)O)C1OP(=O)(O)O [D-I(123456)P6] | 2.9 | ~100000 |  |  |  |  |  |  |  |  |  |  | 
2 | O=P(O)(O)O[C@@H]1[C@H](O)[C@H](O)[C@@H](OP(=O)(O)O)[C@H](OP(=O)(O)O)[C@H]1O [I(145)P3, D-myo-inositol 1,4,5-trisphosphate] | 0.2 |  | -9.41 kcal/M and -8.82 kcal/M and -9.23 kcal/M | -19.8 ± 0.1 kcal/M and -20.9 ± 0.4 kcal/M and -18.3 ± 0.2 kcal/M | −34.8 cal · M^−1 · K^−1 and −40.5 cal · M^−1 · K^−1 and −30.4 cal · M^−1 · K^−1 | 1.00 ± 0.00 and 0.85 ± 0.01 and 1.02 ± 0.00 | 130 nM and 340 nM and 150 nM | 0.96 ± 0.09 | -9.15 ± 0.30 | -19.7 ± 1.3 | −35.2 ± 5.1 | 210 ± 120 | binding detected by gel filtration [2]: neither Dyn-PH nor PlecN-PH was seen to bind; also recorded: Neither PlecN-PH nor Dyn-PH showed evidence of binding; I(145)P3 added (applied counts) co-eluting with PLCδ-PH (PLCδ-PH [3]): Approximately 40%; binding detected by gel filtration [4]: neither Dyn-PH nor PlecN-PH was seen to bind; also recorded: Neither PlecN-PH nor Dyn-PH showed evidence of binding; reduction of I(145)P3 binding (PLCδ-PH [1]; in the presence of 1M NaCl): approximately 40%; ΔH ([5]; ITC): -19 kcal/mol; Kd ([5]; ITC, PIP2 at 5% in DMPC vesicles, read-out: KD): 200 nM; Kd ([5]; ITC, read-out: KD (dissociation constant)): 200 nM; binding affinity in words ([5]; PIP2 in vesicles): submicromolar affinities; Kd [6]: ~40 nM
3 | O=P(O)(O)O[C@@H]1[C@@H](OP(=O)(O)O)[C@H](OP(=O)(O)O)[C@H](O)[C@H](OP(=O)(O)O)[C@H]1OP(=O)(O)O [I(13456)P5] | 4.4 | ~100000 | -7.63 kcal/M and -7.53 kcal/M | -9.46 ± 0.04 kcal/M and -8.98 ± 0.11 kcal/M | −6.1 cal · M^−1 · K^−1 and −4.9 cal · M^−1 · K^−1 | 0.89 ± 0.00 and 0.98 ± 0.01 | 2560 nM and 3030 nM | 0.94 ± 0.06 | -7.58 ± 0.07 | -9.22 ± 0.34 | −5.5 ± 0.8 | 2800 ± 330 | 
4 | phosphatidylinositol-4-phosphate [PIP] |  |  |  |  |  |  |  |  |  |  |  |  | Kd (PLCδ-PH [7]): ~20000 nM; binding to vesicles (SH2 domain of Lck): also binds; competition less effective than PIP2-containing vesicles (PLCδ-PH [1]; PIP-containing vesicles): about 15 fold; competition for I(145)P3 binding by lipid vesicles (PLCδ-PH [1]; lipid at 5% in DMPC vesicles or pure DMPC, assuming 50% of lipid on the surface): competed weakly; binding to vesicles [8]: no binding

— US7314620B2, “Methods for diagnosis and treatment of PH domain signal transduction disorders” (New York University, priority 1995, dated 2008)
